Test results taken from ChEMBL document CHEMBL1782045, “Discovery, synthesis, and investigation of the antitumor activity of novel piperazinylpyrimidine derivatives” (Eur J Med Chem, 2011).

Key:
[1] = biological target: T1, Hepatocyte growth factor receptor (Homo sapiens, UniProt P08581)
Description: Binding affinity to human unphosphorylated c-MET

[2] = biological target: T1, Hepatocyte growth factor receptor; remark: listed apart in the source
Description: Binding affinity to human phosphorylated c-MET

T1 sequence (P08581 whole entry): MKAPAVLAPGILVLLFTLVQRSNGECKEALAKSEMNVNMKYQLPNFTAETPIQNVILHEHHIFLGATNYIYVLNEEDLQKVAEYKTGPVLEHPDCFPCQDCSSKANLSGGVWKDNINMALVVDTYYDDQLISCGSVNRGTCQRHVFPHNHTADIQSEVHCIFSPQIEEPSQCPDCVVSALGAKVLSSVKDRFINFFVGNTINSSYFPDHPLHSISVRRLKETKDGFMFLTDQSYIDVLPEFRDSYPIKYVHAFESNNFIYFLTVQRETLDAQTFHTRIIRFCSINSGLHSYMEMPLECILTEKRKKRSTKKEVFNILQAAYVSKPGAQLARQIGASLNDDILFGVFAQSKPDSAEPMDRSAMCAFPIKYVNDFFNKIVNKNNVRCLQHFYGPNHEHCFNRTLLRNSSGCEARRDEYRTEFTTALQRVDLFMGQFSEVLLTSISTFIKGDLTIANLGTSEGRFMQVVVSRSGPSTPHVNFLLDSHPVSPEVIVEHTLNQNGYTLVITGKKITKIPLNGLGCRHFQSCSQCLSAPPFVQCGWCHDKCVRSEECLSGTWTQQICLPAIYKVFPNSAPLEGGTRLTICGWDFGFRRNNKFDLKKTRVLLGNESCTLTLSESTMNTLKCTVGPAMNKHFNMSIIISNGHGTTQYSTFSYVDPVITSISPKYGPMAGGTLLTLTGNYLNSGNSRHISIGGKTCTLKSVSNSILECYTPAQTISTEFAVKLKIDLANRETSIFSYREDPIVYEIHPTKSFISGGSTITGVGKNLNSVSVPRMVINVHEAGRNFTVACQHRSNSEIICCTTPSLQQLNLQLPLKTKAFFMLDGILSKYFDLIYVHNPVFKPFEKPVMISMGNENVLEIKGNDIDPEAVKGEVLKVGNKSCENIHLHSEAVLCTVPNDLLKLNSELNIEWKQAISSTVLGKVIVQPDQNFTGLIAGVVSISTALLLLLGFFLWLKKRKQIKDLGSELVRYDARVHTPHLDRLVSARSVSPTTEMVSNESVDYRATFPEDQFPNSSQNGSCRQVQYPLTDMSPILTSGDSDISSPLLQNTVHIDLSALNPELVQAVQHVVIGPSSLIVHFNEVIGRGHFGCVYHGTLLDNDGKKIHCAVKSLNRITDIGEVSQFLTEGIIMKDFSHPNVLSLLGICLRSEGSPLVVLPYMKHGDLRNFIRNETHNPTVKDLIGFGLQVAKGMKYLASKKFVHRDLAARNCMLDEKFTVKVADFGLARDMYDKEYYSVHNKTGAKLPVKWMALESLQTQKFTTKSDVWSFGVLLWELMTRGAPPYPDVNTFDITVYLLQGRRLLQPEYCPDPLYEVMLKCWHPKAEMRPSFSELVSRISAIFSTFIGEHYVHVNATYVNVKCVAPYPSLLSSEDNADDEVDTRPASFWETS

`CN(C[C@@H]1COCCO1)S(=O)(=O)Nc1ccc2ccc3ncc(-c4cnn(C)c4)cc3c(=O)c2c1` [MK-2461] was tested, and the Kd [1] was 27.2 nM and the Kd [2] was 4.4 nM.
